From ChEMBL document CHEMBL4725274 (Bioorg Med Chem Lett, 2020)
Calls of active or inactive are those of the source. The rule behind the calls is not given here. Where a SMILES comes first, the peptide text is derived from it. The star is where a group is joined. Stearoyl = CCCCCCCCCCCCCCCCCC(=O)*

How the values were obtained:
HEK293 [1] = assay: Activation of luciferase (unknown origin) expressed in HEK293 cells in presence of pGL3 plasmid incubated for 30 mins by luciferase reporter gene assay; assay type: cell-based
[2] = Drug uptake in HEK293 cells at 1 uM incubated for 1 hr by flow cytometry analysis; assay type: ADME, cell-based; settings: human, hek293, 1 h
HEK293 [3] = assay: Cytotoxicity against HEK293 cells assessed as reduction in cell viability incubated for 96 hrs by MTT assay; assay type: cell-based; settings: Homo sapiens, HEK293, 96 h
[4] = target: Substance-P receptor (Homo sapiens) (UniProt P25103); assay: Binding affinity to NK1R (unknown origin) expressed in HEK293 cells assessed as reduction in cell viability in presence of p53 plasmid at N/P ratio of 3 incubated for 96 hrs by MTT assay relative to control; assay type: cell-based
Sequence of Substance-P receptor (Homo sapiens) (P25103 whole entry): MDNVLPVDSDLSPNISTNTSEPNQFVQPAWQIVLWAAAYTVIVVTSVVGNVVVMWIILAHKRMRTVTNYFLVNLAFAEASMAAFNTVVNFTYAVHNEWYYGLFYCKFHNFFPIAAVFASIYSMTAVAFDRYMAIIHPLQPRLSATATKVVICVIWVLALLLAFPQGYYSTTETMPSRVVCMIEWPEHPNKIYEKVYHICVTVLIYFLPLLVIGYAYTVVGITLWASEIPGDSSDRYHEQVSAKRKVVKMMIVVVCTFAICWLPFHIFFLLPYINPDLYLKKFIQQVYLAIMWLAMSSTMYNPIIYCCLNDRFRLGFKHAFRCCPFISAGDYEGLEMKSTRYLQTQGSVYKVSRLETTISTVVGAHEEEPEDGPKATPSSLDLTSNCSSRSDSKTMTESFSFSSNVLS

[5] = target: Substance-P receptor (Homo sapiens) (UniProt P25103); assay: Binding affinity to NK1R (unknown origin) expressed in HEK293 cells assessed as reduction in cell viability in presence of p53 plasmid at N/P ratio of 0.5 to 3 incubated for 96 hrs by MTT assay; assay type: cell-based
[6] = Drug uptake in HEK293 cells at 1 uM incubated for 1 hr by confocal microscopy analysis; assay type: ADME, cell-based; settings: human, hek293, 1 h
[7] = target: Substance-P receptor (Homo sapiens) (UniProt P25103); assay: Binding affinity to NK1R (unknown origin) expressed in HEK293 cells assessed as reduction in cell viability in presence of p53 plasmid at N/P ratio of 1 incubated for 96 hrs by MTT assay relative to control; assay type: cell-based
HEK293 [8] = assay: Cytotoxicity against HEK293 cells assessed as reduction in cell viability in presence of p53 plasmid at N/P ratio of 0.5 to 3 incubated for 96 hrs by MTT assay; assay type: cell-based; settings: human, hek293, 96 h
[9] = target: Substance-P receptor (Homo sapiens) (UniProt P25103); assay: Binding affinity to NK1R (unknown origin) expressed in HEK293 cells assessed as reduction in cell viability in presence of p53 plasmid at N/P ratio of 2 incubated for 96 hrs by MTT assay relative to control; assay type: cell-based

- Drug uptake [2]: Active
- Drug uptake [6]: Active
Structure (SMILES): CCCCCCCCCCCCCCCCCC(=O)N[C@@H](CCCCN)C(=O)N[C@@H](Cc1c[nH]c2ccccc12)C(=O)N[C@@H](CCCCN)C(=O)N[C@@H](CC(C)C)C(=O)N[C@@H](CCC(=O)O)C(=O)N[C@@H](CCCCN)C(=O)N[C@@H](CCCCN)C(=O)N[C@H](C(=O)NCC(=O)N[C@@H](C)C(=O)N[C@H](C(=O)N[C@@H](CC(C)C)C(=O)N[C@H](C(=O)N[C@@H](CS)C(=O)N[C@H](C(=O)N[C@@H](CC(C)C)C(=O)N[C@@H](CCCNC(=N)N)C(=O)N1CCC[C@H]1C(=O)N[C@@H](CCCCN)C(=O)N1CCC[C@H]1C(=O)N[C@@H](CCC(N)=O)C(=O)N[C@@H](CCC(N)=O)C(=O)N[C@@H](Cc1ccccc1)C(=O)N[C@@H](Cc1ccccc1)C(=O)NCC(=O)N[C@@H](CC(C)C)C(=O)N[C@@H](CCSC)C(N)=O)C(C)C)[C@@H](C)CC)C(C)C)[C@@H](C)CC (Stearoyl-KWKLEKKIGAVLICVLRPKPQQFFGLM-NH2)
- Activity (HEK293 [1]): inactive
- EC50 (HEK293 [3]): 7.5 µM
- Activity [4]: 70.2%
- Activity [5]: Active
- Activity [7]: 51.6%
- Activity (HEK293 [8]): Active
- Activity [9]: 66.7%
